This note sets out measurements from US10870629B2, “18F-labelled compound for prostate cancer diagnosis, and use thereof” (FUTURECHEM CO., LTD., priority 2017, dated 2020).

Each structure is given as a SMILES string.

Series [1] concerns the target T1, PSMA protein (Homo sapiens, UniProt Q04609).
T1 construct: host or cells: 22RV1 human prostate cancer cells
Nature of the series: Measurement of binding capacity: competition with [125I]15 on 22RV1 cells. Conditions: for IC50: [125I]15 0.1 nM, 37° C., 2 hours, read-out: IC50 (Mean ± SD). As to the method:
RPMI1640 supplemented with 1% BSA (bovine serum albumin) was used as a buffer solution.
[^125I]15 (0.1 nM) was added to a vessel containing 22RV1 cells (5×10^4), to which [^18F]1-1 to [^18F]1-9 compounds were loaded at 9 concentrations ([…]), followed by stirring at 37° C. for 2 hours. Upon completion of the stirring, the vessel was washed with 2 mL of PBS solution three times, and then the remaining radioactivity and 50% inhibition concentration (nonlinear regression method) were measured using a gamma counter (2480 WIZARD2 Gamma Counter PerkinElmer Co., MA) and GraphPad Prism (GraphPad Software, Inc., CA).

Series [2] has as its system PSMA+ PC-3 PIP tumor. Kind of series: Biodistribution test with prostate cancer model mouse.
For series [3], the system named is PSMA+ PC-3 PIP tumors. Nature of the series: MicroPET/CT in mice transplanted with prostate cancer cell lines. The series is classed as in vivo, nude mouse. Conditions: for tumor binding (MicroPET/CT, FIG. 3): nude mouse with PC-3 PIP and PC-3 flu tumors; for excretion (MicroPET/CT, FIG. 3): nude mouse, intravenous, 60 minutes imaging.
Series [4] concerns PC-3 PIP. Nature of the series: Measurement of cellular internalization. Format: cell-based, human. The text has this: Then, the membrane protein and the cytoplasmic protein were separated by using Mem-PER Plus Membrane Protein Extraction Kit and NE-PER Nuclear and Cytoplasmic Extraction Kit (ThermoFisher Scientific). The internalization rate (%) was confirmed by obtaining the radioactivity ratio in the cytoplasmic protein to the total radioactivity.

The mark [5] stands for this setting: 0.5 h after tail vein injection.

T1 sequence (Q04609 whole entry): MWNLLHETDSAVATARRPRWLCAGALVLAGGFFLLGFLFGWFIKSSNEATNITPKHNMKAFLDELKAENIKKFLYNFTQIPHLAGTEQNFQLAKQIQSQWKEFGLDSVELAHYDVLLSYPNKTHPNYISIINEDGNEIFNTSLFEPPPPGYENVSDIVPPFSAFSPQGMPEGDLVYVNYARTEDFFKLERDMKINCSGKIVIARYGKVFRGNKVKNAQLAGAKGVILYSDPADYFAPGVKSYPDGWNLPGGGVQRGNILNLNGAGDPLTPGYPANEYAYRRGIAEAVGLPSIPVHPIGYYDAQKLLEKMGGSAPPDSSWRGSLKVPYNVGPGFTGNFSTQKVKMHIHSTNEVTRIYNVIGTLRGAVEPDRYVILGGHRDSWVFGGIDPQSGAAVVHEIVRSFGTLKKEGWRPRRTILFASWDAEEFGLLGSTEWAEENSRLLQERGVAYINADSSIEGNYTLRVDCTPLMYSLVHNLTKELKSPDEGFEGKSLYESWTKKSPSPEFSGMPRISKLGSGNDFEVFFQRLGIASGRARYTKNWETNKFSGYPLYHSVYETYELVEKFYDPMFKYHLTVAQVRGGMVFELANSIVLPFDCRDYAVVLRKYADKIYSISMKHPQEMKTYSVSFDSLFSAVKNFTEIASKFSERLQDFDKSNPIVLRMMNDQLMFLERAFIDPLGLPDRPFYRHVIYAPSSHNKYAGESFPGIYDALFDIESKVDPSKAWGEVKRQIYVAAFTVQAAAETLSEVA

As for `O=C(O)CC[C@H](NC(=O)N[C@@H](CCCCNC(=O)N(Cc1ccncc1)Cc1cn(CCOCC[18F])nn1)C(=O)O)C(=O)O` [Example 7-5], the IC50 in series [1] was 11.8 nM.

On to `O=C(O)CC[C@H](NC(=O)N[C@@H](CCCCNC(=O)Nc1ccc(I)cc1)C(=O)O)C(=O)O` [Comparative Example 1, reference compound], for which the IC50 in series [1] turned out to be 30.7 ± 10.2 nM.

For `O=C(O)CC[C@H](NC(=O)N[C@@H](CCCCNC(=O)NCc1cn(CCOCC[18F])nn1)C(=O)O)C(=O)O` [Example 7-4], the IC50 in series [1] was found to be 57 ± 33 nM.

As to `O=C(O)CC[C@H](NC(=O)N[C@@H](CCCCNC(=O)NCc1cn(CCF)nn1)C(=O)O)C(=O)O` [Example 7-1], the half-inhibitory concentration (IC50) in series [1] came out at 635 ± 263 nM.

Take `O=C(O)CC[C@H](NC(=O)N[C@@H](CCCCNC(=O)N(Cc1cn(CCOCC[18F])nn1)c1ccncc1)C(=O)O)C(=O)O` [Example 7-6]: in series [2] (setting [5]), the PIP to blood came to 14.05 ± 3.61, the PIP to liver turned out to be 5.64 ± 6.10, the PIP to muscle is on record as 13.00 ± 4.97 and the PIP to spleen amounted to 7.31 ± 3.34. This compound displayed a PIP/flu in series [2] (setting [5]) of 16.00 ± 5.68. In series [2] (1 h after tail vein injection), the PIP to blood turned out to be 30.30 ± 17.05, the PIP to liver is listed as 9.93 ± 13.26, the PIP to muscle is listed as 20.11 ± 14.99 and the PIP to spleen worked out at 12.46 ± 16.18. The same compound showed a PIP/flu in series [2] (1 h after tail vein injection) of 23.08 ± 14.91. In series [2] (2 h after tail vein injection), this compound returned a PIP to blood of 36.90 ± 9.52, a PIP to liver of 13.71 ± 12.60, a PIP to muscle of 38.11 ± 14.83 and a PIP to spleen of 25.98 ± 8.66. This compound registered a PIP/flu in series [2] (2 h after tail vein injection) of 33.32 ± 14.64. In addition, in series [2] (4 h after tail vein injection), the PIP to blood stood at 42.90 ± 18.49, the PIP to liver was 19.77 ± 11.81, the PIP to muscle came to 45.39 ± 22.54 and the PIP to spleen was 32.51 ± 10.12. Besides, in series [2] (4 h after tail vein injection), the PIP/flu turned out to be 35.69 ± 11.64. In addition, in series [3], the “tumor binding (MicroPET/CT, FIG. 3)” value was “selectively bound to PSMA+PC-3 PIP tumors”; the “excretion (MicroPET/CT, FIG. 3)” value was “rapidly excreted through the kidneys and bladder”. In series [1], the “binding capacity higher than [18F]DCFPyL (Comparative Example 1)” value is recorded as “about 6 times”, the “binding to the PSMA protein (in words)” value was “most strongly bound” and the IC50 turned out to be 5.08 nM. In addition, the “% Internalization ratio (Mean ± SD)” value in series [4] (30 min) amounted to 93.30 ± 2.11%. Also, the “% Internalization ratio (Mean ± SD)” value in series [4] (60 min) stood at 91.89 ± 5.76%. In addition, the “% Internalization ratio (Mean ± SD)” value in series [4] (120 min) is 94.77 ± 2.92%. Besides, in series [4] (240 min), the “% Internalization ratio (Mean ± SD)” value turned out to be 96.32 ± 1.08%.

Take `O=C(O)CC[C@H](NC(=O)N[C@@H](CCCCNC(=O)Nc1ccc([123I])cc1)C(=O)O)C(=O)O` [Comparative Example 1, reference compound]: the “tumor binding (MicroPET/CT, FIG. 3)” value in series [3] was “selectively bound to PSMA+PC-3 PIP tumors”. Moreover, in series [3], the “excretion (MicroPET/CT, FIG. 3)” value is “rapidly excreted through the kidneys and bladder”. Also, the “% Internalization ratio (Mean ± SD)” value in series [4] (30 min) amounted to 91.27 ± 4.03%; in series [4] (60 min), 86.91 ± 8.13%; in series [4] (120 min) it was 94.31 ± 2.94%; in series [4] (240 min) it was 95.01 ± 2.58%.

In general, IC50 refers to the concentration needed to halve the response being measured.
